Structures are written as SMILES. Substitutions are numbered along the chain they refer to.

Holding throughout (format): biochemical
Test [1] addresses T1, human arginase type I N130D (Homo sapiens, UniProt P05089, N130D).
T1 sequence (P05089 1-322 N130D): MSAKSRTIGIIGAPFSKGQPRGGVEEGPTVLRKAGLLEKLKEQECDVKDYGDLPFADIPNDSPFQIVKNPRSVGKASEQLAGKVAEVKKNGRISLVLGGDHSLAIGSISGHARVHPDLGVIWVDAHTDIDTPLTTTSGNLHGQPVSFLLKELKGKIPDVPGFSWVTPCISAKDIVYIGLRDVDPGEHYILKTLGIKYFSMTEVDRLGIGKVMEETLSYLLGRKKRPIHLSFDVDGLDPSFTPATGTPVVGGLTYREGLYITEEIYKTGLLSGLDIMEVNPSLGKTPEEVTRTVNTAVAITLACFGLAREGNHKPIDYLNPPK
The test is described as follows: Kinetic and inhibition studies, N130D mutant. The procedure:
(§1) Bacterial cultures were grown with shaking at 37 °C in Luria Broth media, in the presence of ampicillin (100 μg/mL). The wild-type and mutant human liver arginase cDNAs were directionally cloned into the pBluescript II KS(+) expression vector and then expressed in E. coli JM109, following induction with 1 mM isopropyl β-D-thiogalactopyranoside. The bacterial cells were disrupted by sonication on ice (5 × 30 s pulses), centrifuged for 20 min at 12,000× g, and the obtained supernatant was precipitated with ammonium sulfate (60% saturation). The pellet, collected by centrifugation at 12,000× g for 10 min, was re-suspended in buffer 5 mM Tris–HCl (pH 7.5) containing 2 mM MnCl2 and dialyzed for 6 h at 4 °C against the same buffer. After incubation with 5 mM MnCl2 for 10 min at 60 °C, the enzyme variants were purified as previously described. The purity of the enzymes was evaluated by SDS–PAGE stained by Coomassie blue and immunodetection using an anti- rat arginase I antibody.
(§2) The single, double, triple, and chimera variants of human arginase type I were obtained by PCR, using the QuickChange site-directed mutagenesis kit (Stratagene, La Jolla, CA, USA); the plasmid pBluescript II KS(+) containing the human liver arginase cDNA was used as template. To obtain the chimeric species of human arginase type I, serial mutations were made in each loop to be modified, using as template DNA the wild-type arginase gene or the previous done mutation, subcloned in the plasmid pBluescript II KS (+). Specifically, the residues present in the arginase structure were replaced by those corresponding to the agmatinase sequence of E. coli.
(§3) All assays were initiated by adding the enzyme to a previously equilibrated buffer with the substrate in solution (the concentrations of used substrates were between 0.2–3 fold the Km). Urea was determined by a colorimetric method with α-isonitrosopropiophenone. The protein concentrations were determined by the Bradford’s method, with bovine serum albumin as standard. Initial velocity and enzymatic inhibition experiments were performed in duplicate and repeated three times. The inhibitory patterns were initially determined by double reciprocal plots and re-plots of intercepts and slopes versus inhibitor concentrations. […] Velocities are expressed as μmol of urea/10 min.

In test [2] the target is T2, human arginase type I S137C (Homo sapiens, UniProt P05089, S137C).
T2 sequence (P05089 1-322 S137C): T1 sequence (P05089 1-322 N130D) with D130N, S137C
The test is described as follows: Kinetic and inhibition studies, S137C mutant. Here is the method:
as §1, §2, §3

Test [3] concerns the target T3, human arginase type I N130D-S137C-N139D (Homo sapiens, UniProt P05089, N130D/N139D/S137C).
T3 sequence (P05089 1-322 N130D/S137C/N139D): T1 sequence (P05089 1-322 N130D) with S137C, N139D
The test is described as follows: Kinetic and inhibition studies, triple mutant. The procedure: as §1, §2
All assays were initiated by adding the enzyme to a previously equilibrated buffer with the substrate in solution (the concentrations of used substrates were between 0.2–3 fold the Km). Urea was determined by a colorimetric method with α-isonitrosopropiophenone. The protein concentrations were determined by the Bradford’s method, with bovine serum albumin as standard. […]

The target in test [4] is T4, Chimera A2 (I129T/N130Y/T131A+∆ P132-T134) of human arginase type I (Homo sapiens, UniProt P05089, DEL129-131/I129T/L133Y/N130Y/P132T/T134A).
T4 construct: made in house; host or cells: E. coli JM109
T4 sequence (P05089 with tags, fused parts or gaps DEL129-131/P132T/L133Y/T134A): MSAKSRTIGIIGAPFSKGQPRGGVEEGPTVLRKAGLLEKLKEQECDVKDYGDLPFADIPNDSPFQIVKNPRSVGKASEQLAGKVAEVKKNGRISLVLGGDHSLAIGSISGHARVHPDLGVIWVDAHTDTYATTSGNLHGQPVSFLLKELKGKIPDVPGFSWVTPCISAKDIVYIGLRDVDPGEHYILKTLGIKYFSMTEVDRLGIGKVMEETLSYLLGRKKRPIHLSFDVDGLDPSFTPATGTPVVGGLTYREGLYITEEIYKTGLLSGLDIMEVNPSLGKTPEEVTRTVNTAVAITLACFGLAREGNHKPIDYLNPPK
The test is described as follows: Kinetic and inhibition studies, Chimera A2. Here is the method:
as §1, §2, §3

The target in test [5] is T5, type I human arginase V182E (Homo sapiens, UniProt P05089, V182E).
T5 sequence (P05089 1-322 V182E): T1 sequence (P05089 1-322 N130D) with D130N, V182E
The test is described as follows: Kinetic and inhibition studies, V182E mutant. The following applies: substrate arginine. The procedure: as §1, §2, §3

The mark [6] stands for this setting: substrate = labelled compound, pH 9.5, 2 mM Mn2+.

On to `N=C(N)NCCC[C@H](N)C(=O)O` [Arginine, L-arginine], for which the Km in test [1] (setting [6]) amounted to 13.3 mM; in test [2] (setting [6]), 3.2 mM; in test [3] (setting [6]) it was 6.9 mM; in test [5] (pH 9.5, 2 mM Mn2+) it was 2.4 ± 0.2 mM. Moreover, the kcat came out at 33 s⁻¹ in test [1] (setting [6]), 75 s⁻¹ in test [2] (substrate = labelled compound), 4 s⁻¹ in test [3] (substrate = labelled compound) and 187 ± 10 s⁻¹ in test [5]. In addition, the “catalytic activity relative to wild type” value in test [1] (substrate arginine) came to 17%. Moreover, the “kcat/Km ratio, times less than wild-type enzyme” value in test [1] (substrate arginine) is on record as 50 times. In addition, the “Inhibition type” value in test [4] (substrate agmatine) is “linear competitive inhibition”. For the same molecule, the Kis in test [4] (substrate agmatine) is given as 9 ± 3 mM.

`NCCC[C@H](N)C(=O)O` [Ornithine, L-ornithine]: the results for the Ki in test [1] (read-out: Ki^orn), in test [2] (read-out: Ki^orn) and in test [3] (read-out: Ki^orn) were 7.8 mM, 7.6 mM and 5.4 mM, respectively. Moreover, the “Inhibition by ornithine compared with wild-type arginase” value in test [4] (pH 9.5, 37 °C, substrate 5 mM, Figure 4A) is on record as “much more insensitive to inhibition by ornithine than the wild-type arginase”. The Inhibition type entry in test [5] is on record as “Competitive”. In addition, the Kis in test [5] is 3.2 ± 0.2 mM.

(Values after paper PMC9224512, “New Insights into the Determinants of Specificity in Human Type I Arginase: Generation of a Mutant That Is Only Active with Agmatine as Substrate” (International Journal of Molecular Sciences, 2022).)
